Assay results published in patent US10933053B2, “Treating infections with ceftolozane/tazobactam in subjects having impaired renal function” (MERCK SHARP & DOHME CORP., priority 2013, dated 2021).
Marks after values point to notes of the source that are not given here. One block for each compound: values may come before it.

How the values were obtained:
[1] = tested on: baseline uropathogens (complicated urinary tract infections); experiment: Phase 3 study of complicated urinary tract infections incl. pyelonephritis: composite cure / microbiological eradication at test-of-cure; format: in vivo, human; details: mMITT; patients with concurrent bacteremia
From the text: The primary efficacy endpoint was the composite microbiological and clinical cure response at the test-of-cure (TOC) visit in the microbiologically modified intent-to-treat (mMITT) population, which included all patients who received study medication and had at least 1 baseline uropathogen. The key secondary efficacy endpoint was the composite microbiological and clinical cure response at the TOC visit in the microbiologically evaluable (ME) population, which included protocol-adherent mMITT patients with a urine culture at the TOC visit.

[2] = tested on: Gram-negative aerobic organisms isolated from patients with cUTI; experiment: Susceptibility testing of baseline cUTI isolates, CLSI broth microdilution (tazobactam fixed 4 μg/mL); format: cell-based; details: mMITT; ceftolozane/tazobactam breakpoint ≤8 mg/1, levofloxacin CLSI criteria
Description: 764 isolates of Gram-negative aerobic organisms were isolated from 800 patients in the microbiological modified intent-to-treat population (enrolled in 20 countries in Eastern Europe, North America, South America and 5 countries outside of these regions). Susceptibility (S) testing was performed with ceftolozane/tazobactam at a fixed 4 μg/mL of tazobactam and 10 antibiotic comparators using CLSI broth microdilution methods. ESBL enzymes were identified by PCR.

[3] = clinical; details: human, in vivo
From the text: The most common adverse reactions (≥5% in either indication) occurring in patients receiving CXA-201 were nausea, headache and diarrhea. Table 3 lists adverse reactions occurring in ≥1.0% of patients receiving CXA-201 in Phase 3 clinical trials.
The majority of adverse events were mild to moderate in severity, and the incidence of treatment-limiting adverse events was <2% in both treatment groups. Epidemiology and susceptibility of organisms isolated from patients with cUTI.

[4] = clinical; details: human, in vivo; remark: listed apart in the source
Description: The extent of ceftolozane exposure increases with decreasing renal function. […] In subjects with moderate renal impairment, exposure approximately doubles relative to that in subjects with normal renal function.
For tazobactam, this estimated exposure from a dose of 125 mg in subjects with severe renal impairment not on hemodialysis is similar to that achieved with 500 mg tazobactam in subjects with normal renal function (23.8 μg·h/mL).

[5] = clinical; details: human, in vivo; remark: listed apart in the source
Description: (§1) This was a Phase 1, multicenter, prospective, open-label study of 750 mg ceftolozane/tazobactam (as CXA-201) administered IV in male and female adult subjects with severe renal impairment (estimated CLCR<30 mL/min) and subjects with end-stage renal disease (ESRD) on hemodialysis (HD). The primary objective of the study was to determine the PK profile of ceftolozane/tazobactam in subjects with severe renal impairment and subjects with ESRD on HD and to determine the effect of HD on the clearance of ceftolozane/tazobactam.
(§2) Subjects with severe renal impairment received a single IV 1-hour infusion of 750 mg ceftolozane/tazobactam on Day 1. […] Subjects in this cohort received an IV dose of 750 mg ceftolozane/tazobactam as a 1 hour infusion immediately after their first HD session on Day 1 (post dialysis, approximately 72 hours prior to the next HD session) and a second dose of ceftolozane/tazobactam approximately 2 hours before their second HD session on Day 4 of the study. Infusion of ceftolozane/tazobactam was completed approximately 1 hour before the start of HD.
(§3) Subjects in both cohorts had urine (if not anuric) and plasma samples collected for determination of levels of ceftolozane, tazobactam and the M1 metabolite of tazobactam; subjects in the ESRD on HD cohort also had dialysate fluid samples collected for PK assessment. Plasma, urine, and dialysate levels of ceftolozane, tazobactam, and its metabolite M1 collected over a prespecified interval were determined by LC/MS/MS assay.
All subjects underwent hemodialysis for 3 to 4 hours using a high-flux membrane (either 1.4, 1.8, or 1.9 m^2) on Days 1, 4, and 6 as scheduled. Average blood flow rate was 264 to 600 mL/min and average dialysis flow rate was either 600 or 800 mL/min for all subjects with ESRD.
All cohorts received ceftolozane/tazobactam as an intravenous infusion over 1 h. The normal, mild, and moderate renal impairment cohorts received a single dose of ceftolozane/tazobactam 1,000 mg/500 mg; the severe renal impairment cohort received a single dose of ceftolozane/tazobactam 500 mg/250 mg; the ESRD cohort received a dose of ceftolozane/tazobactam 500 mg/250 mg initiated at the end of HD on day 1 and another dose initiated 2 h before HD on day 4. Subjects with ESRD underwent HD for 3 to 4 h using a high-flux membrane as scheduled; average dialysis flow rate was 600 to 800 ml/min. Revaclear hemodialyzers (Gambro, Stockholm, Sweden) were used in 5 subjects (ultrafiltration coefficient 50 to 60 ml/h/mmHg, high flux membrane of 1.4 to 1.8 m^2) and a CT 190G hemodialyzers (Baxter Healthcare, McGaw Park, Ill.) was used in 1 subject (ultrafiltration coefficient 36 ml/h/mmHg, high flux membrane of 1.9 m^2). The average blood flow rate was 400 to 600 ml/min with the exception of one subject with rates between 264 and 400 ml/min.
Plasma concentrations of ceftolozane and tazobactam were measured prior to, during, and following administration of ceftolozane/tazobactam. Blood samples were collected 30 min prior to administration, at the end of administration and at 5, 15, and 30 min and 1, 2, 3, 5, 7, 9, 11, 15, 25, and 35 h after completion of ceftolozane/tazobactam administration in the normal, mild, and moderate renal impairment cohorts. Severe renal impairment and ESRD cohorts off HD had samples taken 30 min prior to administration and at 0.5, 1, 1.5, 2, 3, 6, 9, 12, 24, 36, and 48 h after the start of administration. On the day of and following HD, the subjects with ESRD had samples taken 30 min prior to administration and at 0.5, 1, 1.5, 2, 3, 4, 5, 6, 9, 12, 24, 36, and 44 h after the start of the administration. The entire dialysate was collected at each of the following intervals: 0 to 1, 1 to 2, 2 to 3, and 3 h to the end of dialysis. Urine for PK analysis was obtained in the normal, mild, and moderate cohorts at 0 to 2, 2 to 4, 4 to 8, 8 to 12, 12 to 24, and 24 to 36 h after the start of ceftolozane/tazobactam administration.

[6] = clinical; details: human, in vivo, 750 mg
Description: as §1, §2, §3

[7] = clinical; details: human, in vivo; remark: listed apart in the source
Description: This TQT study was a single-center, prospective, randomized, double-blind, double-dummy, placebo and active controlled, 4-way crossover study that evaluated a single therapeutic 1.5 g and a single supratherapeutic 4.5 g dose of ceftolozane/tazobactam compared with placebo. Moxifloxacin 400 mg, given orally, was used as a positive control. All subjects received study drug on 4 dosing days (Day 1, Day 5, Day 9, and Day 13) in a crossover fashion with a 3-day wash-out period between doses. Healthy men and women were randomized on a 1:1:1:1 basis to 1 of 4 dosing sequences.
Electrocardiograms were recorded (triplicate measurements) over 24 hours on Day 1, Day 5, Day 9, and Day 13 using a 12-lead Holter monitor. Blood samples for determination of ceftolozane, tazobactam, and the M1 metabolite of tazobactam levels were obtained at prespecified time intervals prior to and following each electrocardiogram (ECG) reading on dosing days. Plasma levels of ceftolozane, tazobactam, and its metabolite M1 were determined by LC/MS/MS assay.

[8] = tested on: baseline intra-abdominal pathogens (complicated intra-abdominal infections); experiment: Phase 3 study of complicated intra-abdominal infections: clinical cure at test-of-cure; format: in vivo, human; details: ME population
Description: A total of 979 adults hospitalized with complicated intra-abdominal infections were randomized and received study medications in a multinational, double-blind study comparing CXA-201 (1.5 g IV every 8 hours) plus metronidazole (500 mg IV every 8 hours) to meropenem (1 g IV every 8 hours) for 4 to 14 days of therapy. Complicated intra-abdominal infections included appendicitis, cholecystitis, diverticulitis, gastric/duodenal perforation, perforation of the intestine, and other causes of intra-abdominal abscesses and peritonitis. The primary efficacy endpoint was clinical response at the test-of-cure (TOC) visit in the microbiological intent-to-treat (MITT) population, which included all patients who had at least 1 baseline intra-abdominal pathogen. The key secondary efficacy endpoint was clinical response at the TOC visit in the microbiologically evaluable (ME) population, which included all protocol-adherent MITT patients.

[9] = tested on: QT/QTc interval; format: in vivo, human; details: 400 mg orally, positive control
From the text: The primary objectives of the study were to evaluate the effect of a single IV supratherapeutic dose of ceftolozane/tazobactam on ventricular repolarization as measured by QTc interval in healthy subjects compared to baseline-adjusted, time-matched placebo and to evaluate the change from the period-specific predose baseline of QT/QTc interval corrected by QTcI (individual QT correction subject-specific formula) across all dose groups.

SMILES: C[C@H]1COc2c(N3CCN(C)CC3)c(F)cc3c(=O)c(C(=O)O)cn1c23 [Levofloxacin, levofloxacin]
composite cure rate [1]: 57.6%
gram-negative pathogens isolated at baseline that were susceptible [2]: 70.7%
ALT increased [3]: 5 (0.9)
AST increased [3]: 5 (0.9)
Abdominal pain [3]: 2 (0.4)
Adverse events occurred, patients [3]: 34.4%
Constipation [3]: 17 (3.2)
Diarrhea [3]: 23 (4.3)
Headache [3]: 26 (4.9)
Nausea [3]: 9 (1.7)
Vomiting [3]: 6 (1.1)
gastrointestinal symptoms [3]: 11.4%
headache [3]: 4.9%
incidence of treatment-limiting adverse events [3]: < 2%

t1/2, geometric mean [4]: 6.67 h
AUC0-∞ [5]: 31.0 (23.4-34.9) μg * hr/mL
AUC48h Ratio (Day 3:1), median (range) [5]: 0.49 (0.38-0.78)
AUC(0-t) [5]: 26.8 (3.77-32.0) μg * hr/mL
AUCt0-t1, median (range) [5]: 27.5 (3.8-32.7) μg * hr/mL
Change in Concentration [5]: 9.1 (0.5-14.5)
Clast [5]: 0.41 (0.26-1.11) μg/mL
Clast lower than Cmax [5]: ~26 fold
Cmax [5]: 10.9 (1.26-15.7) μg/mL
Concentration after HD [5]: 0.4 (0.3-1.1) μg/mL
Concentration before HD [5]: 9.4 (1.4-14.9) μg/mL
Half-Life, median (range) [5]: 368.4^a hr
Percent Removed [5]: 93.4 (38.1-97.7) %
Percent Removed, median (range) [5]: 51 (22-63)
Tmax [5]: 1.50 (0.50-1.50) hr
half-life [5]: 1.80 (0.68-2.38) hr
median RDHD (percent reduction in plasma concentration during HD) [5]: 93%
median dialysis clearance (CLD) [5]: 4.59 L/h
removed by dialysis [5]: ~51%
t1/2 during the HD period (median) [5]: 1.80 h
AUClast, mean (CV %) [6]: 53.7 (25) μg · h/mL
AUC∞, mean (CV %) [6]: 60.3 (30) μg · h/mL
Median tmax [7]: 3.7 h
SMILES: C[C@](Cn1ccnn1)([C@@H](N)C(=O)O)S(=O)O [M1 Metabolite]

Abdominal pain [3]: 2 (0.4)
Constipation [3]: 6 (1.2)
Diarrhea [3]: 25 (5.0)
Headache [3]: 9 (1.8)
Nausea [3]: 29 (5.8)
Vomiting [3]: 20 (4.0)
SMILES: C[C@@H](O)[C@H]1C(=O)N2C(C(=O)O)=C(S[C@@H]3CN[C@H](C(=O)N(C)C)C3)[C@H](C)[C@H]12 [Meropenem, meropenem]
Per pathogen clinical cure rate ([8]; Aerobic Gram-negative): (93.8) %
Per pathogen clinical cure rate ([8]; Aerobic Gram-positive): (91.9) %
Per pathogen clinical cure rate ([8]; Anaerobic Gram-negative): (96.4) %
Per pathogen clinical cure rate ([8]; Bacteroides thetaiotaomicron): (93.0) %
Per pathogen clinical cure rate ([8]; Klebsiella pneumoniae (CTX-M-15 ESBL-producing)): (0) %
ALT increased [3]: 5 (1.0)
AST increased [3]: 3 (0.6)

SMILES: COc1c(N2C[C@@H]3CCCN[C@@H]3C2)c(F)cc2c(=O)c(C(=O)O)cn(C3CC3)c12 [moxifloxacin]
95% lower confidence bound on difference from baseline for QTcI vs placebo [9]: above 5 ms
